Measurements taken from PMC2806030, “Inhibition of mammalian S6 kinase by resveratrol suppresses autophagy” (Aging (Albany NY), 2009).

How the values were obtained:
Test in all cases: biochemical
Parameters in all cases: Upstate KinaseProfiler in vitro kinase activity assay, per cent of DMSO control
Settings in all cases: read-out: Activity (% of Control)
Abl(h) = biological target: T1, Abl(h) (Homo sapiens, UniProt P00519)
T1 construct: gene ABL1
Protocol: (§1) Kinase profile and kinase assay. A Kinase profile against 100 kinases listed for resveratrol at 20 μM was generated utilizing Upstate's KinaseProfiler™ service. Assay protocols for each kinase are available from Upstate (Lake Placid, NY). In vitro kinase assay was performed as described previously. Briefly, HEK293 cells were transfected with HA-S6K1 wt, HA-S6K1 K100R, or vector as indicated. Cells were treated with 1 μg/ml insulin for 10 minutes prior to harvesting in PBS + 0.5% NP-40 + protease and phosphatase inhibitors. 125 μg of lysate per sample was immunoprecipitated using 0.5 μg/sample of anti-HA High-Affinity (Roche, Basel Switzerland). Beads from immunoprecipitations were washed three times in lysis buffer and once in kinase buffer, and kinase assays were performed with recombinant GST-S6 as substrate (1 μg per assay). In the indicated lanes varying doses of resveratrol or DMSO control were added to the reaction prior to addition of the GST-S6 substrate. All samples were subjected to SDS-PAGE, and 32P incorporation was quantified by using a Bio-Rad (Hercules, CA) Phosphor-Imager and subsequent analysis with ImageJ (NIH).  Figure 4. Resveratrol inhibits S6K1 in vitro. (A) Structural similarity between resveratrol and quercetin, a known kinase inhibitor. (B) Kinase inhibition profile for resveratrol at 20 μM obtained using KinaseProfiler™ (Upstate). Dashed line represents 100% activity as compared to control. Black filled-in bar on the graph indicates S6K1. Complete data set is provided in Supplementary Table 1. Error bars represent s.d.m. (C) Phosphorylation of recombinant GST-tagged S6 by immunoprecipitated HA-S6K1 under increasing concentrations of resveratrol (Res). Autoradiograph depicts S6K1 phosphorylation of GST-S6. (D) Average of three separate kinase assay experiments as performed in (C). Densitometry was performed using NIH ImageJ. Error bars represent s.e.m. […] Therefore, we hypothesized that the effect of resveratrol on autophagy could be related to inhibition of one or more upstream kinases. To test this, we performed an in vitro kinase screen and determined an inhibition profile for resveratrol. […] With the exception of S6K1, these kinases play primary roles in the hematopoietic system, and were thus viewed as unlikely to have been responsible for the effect we were studying. […] On the other hand, S6K1 is known to play a requisite role in the regulation of autophagy in Drosophila, making it a promising candidate for the in vivo target of resveratrol that is responsible for inhibition of autophagy.

Aurora-A(h) = biological target: T2, Aurora-A(h) (Homo sapiens, UniProt O14965)
T2 construct: gene AURKA
T2 sequence (O14965 whole entry): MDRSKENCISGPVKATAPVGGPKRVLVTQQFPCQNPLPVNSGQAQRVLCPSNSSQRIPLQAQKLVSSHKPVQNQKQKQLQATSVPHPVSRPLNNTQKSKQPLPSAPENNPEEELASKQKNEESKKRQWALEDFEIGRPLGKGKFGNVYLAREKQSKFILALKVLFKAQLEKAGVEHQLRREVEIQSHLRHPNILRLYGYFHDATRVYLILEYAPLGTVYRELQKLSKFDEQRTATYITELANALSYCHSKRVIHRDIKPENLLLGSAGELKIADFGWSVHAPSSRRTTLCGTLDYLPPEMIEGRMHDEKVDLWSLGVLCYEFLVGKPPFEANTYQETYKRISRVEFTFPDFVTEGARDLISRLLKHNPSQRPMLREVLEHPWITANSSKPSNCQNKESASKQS
Protocol: as §1

CDK2/cyclinA(h) = CDK2/cyclinA(h) (Homo sapiens, UniProt P24941)
Protocol: as §1

CDK9/cyclin T1(h) = CDK9/cyclin T1(h) (Homo sapiens, UniProt P50750)
Protocol: as §1

DAPK1(h) = DAPK1(h) (Homo sapiens, UniProt P53355)
Protocol: as §1

EphB2(h) = EphB2(h) (Homo sapiens, UniProt P29323)
EphB2(h), sequence (P29323 whole entry): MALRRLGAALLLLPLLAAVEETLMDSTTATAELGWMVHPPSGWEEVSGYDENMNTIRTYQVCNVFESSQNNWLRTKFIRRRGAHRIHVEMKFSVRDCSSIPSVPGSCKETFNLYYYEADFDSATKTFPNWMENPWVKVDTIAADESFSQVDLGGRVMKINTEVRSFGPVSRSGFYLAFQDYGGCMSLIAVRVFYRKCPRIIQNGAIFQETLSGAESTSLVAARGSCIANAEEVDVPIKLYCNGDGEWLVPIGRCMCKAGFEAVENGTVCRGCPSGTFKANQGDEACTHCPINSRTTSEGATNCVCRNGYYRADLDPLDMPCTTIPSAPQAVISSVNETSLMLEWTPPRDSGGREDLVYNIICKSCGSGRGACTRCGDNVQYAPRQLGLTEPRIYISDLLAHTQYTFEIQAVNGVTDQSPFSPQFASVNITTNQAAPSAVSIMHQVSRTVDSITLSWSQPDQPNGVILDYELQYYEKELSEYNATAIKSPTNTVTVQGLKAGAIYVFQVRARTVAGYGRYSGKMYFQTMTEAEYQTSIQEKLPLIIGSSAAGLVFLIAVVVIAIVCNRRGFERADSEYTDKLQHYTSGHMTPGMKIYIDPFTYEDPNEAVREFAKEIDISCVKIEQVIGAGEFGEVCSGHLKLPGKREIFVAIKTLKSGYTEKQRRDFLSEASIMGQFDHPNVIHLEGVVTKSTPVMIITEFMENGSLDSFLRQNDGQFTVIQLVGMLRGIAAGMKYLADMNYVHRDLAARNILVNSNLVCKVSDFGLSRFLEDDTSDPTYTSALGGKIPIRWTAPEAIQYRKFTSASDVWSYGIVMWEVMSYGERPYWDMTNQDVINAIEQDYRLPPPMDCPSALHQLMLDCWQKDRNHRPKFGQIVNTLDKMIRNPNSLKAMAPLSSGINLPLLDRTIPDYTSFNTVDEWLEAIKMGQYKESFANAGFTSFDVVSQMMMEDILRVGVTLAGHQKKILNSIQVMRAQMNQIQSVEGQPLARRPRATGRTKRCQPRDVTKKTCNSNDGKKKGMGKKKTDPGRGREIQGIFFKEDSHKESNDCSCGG
Protocol: as §1

Fgr(h) = Fgr(h) (Homo sapiens, UniProt P09769)
Protocol: as §1

GSK3α(h) = biological target: T3, GSK3α(h) (Homo sapiens, UniProt P49840)
T3 construct: gene GSK3A
T3 sequence (P49840 whole entry): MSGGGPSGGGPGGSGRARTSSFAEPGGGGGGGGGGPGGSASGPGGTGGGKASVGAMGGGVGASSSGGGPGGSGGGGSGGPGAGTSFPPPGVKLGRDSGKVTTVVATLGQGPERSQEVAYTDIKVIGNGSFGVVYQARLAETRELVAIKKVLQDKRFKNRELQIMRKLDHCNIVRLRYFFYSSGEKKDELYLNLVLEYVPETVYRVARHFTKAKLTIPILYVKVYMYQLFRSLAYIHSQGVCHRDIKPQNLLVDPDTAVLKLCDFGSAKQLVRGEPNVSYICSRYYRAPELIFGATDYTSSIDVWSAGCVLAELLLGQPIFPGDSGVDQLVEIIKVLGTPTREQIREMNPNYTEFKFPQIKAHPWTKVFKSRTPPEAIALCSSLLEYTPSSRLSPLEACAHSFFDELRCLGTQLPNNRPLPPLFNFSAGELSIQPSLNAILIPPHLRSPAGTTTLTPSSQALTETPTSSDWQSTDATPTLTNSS
Protocol: as §1

JNK1α1(h) = biological target: T4, JNK1α1(h) (Homo sapiens, UniProt P45983)
T4 construct: gene MAPK8; isoform alpha1
Protocol: as §1

JNK2α2(h) = biological target: T5, JNK2α2(h) (Homo sapiens, UniProt P45984)
T5 construct: gene MAPK9; isoform alpha2
Protocol: as §1

NEK7(h) = NEK7(h) (Homo sapiens, UniProt Q8TDX7)
Protocol: as §1

PAK3(h) = PAK3(h) (Homo sapiens, UniProt O75914)
PAK3(h), sequence (O75914 whole entry): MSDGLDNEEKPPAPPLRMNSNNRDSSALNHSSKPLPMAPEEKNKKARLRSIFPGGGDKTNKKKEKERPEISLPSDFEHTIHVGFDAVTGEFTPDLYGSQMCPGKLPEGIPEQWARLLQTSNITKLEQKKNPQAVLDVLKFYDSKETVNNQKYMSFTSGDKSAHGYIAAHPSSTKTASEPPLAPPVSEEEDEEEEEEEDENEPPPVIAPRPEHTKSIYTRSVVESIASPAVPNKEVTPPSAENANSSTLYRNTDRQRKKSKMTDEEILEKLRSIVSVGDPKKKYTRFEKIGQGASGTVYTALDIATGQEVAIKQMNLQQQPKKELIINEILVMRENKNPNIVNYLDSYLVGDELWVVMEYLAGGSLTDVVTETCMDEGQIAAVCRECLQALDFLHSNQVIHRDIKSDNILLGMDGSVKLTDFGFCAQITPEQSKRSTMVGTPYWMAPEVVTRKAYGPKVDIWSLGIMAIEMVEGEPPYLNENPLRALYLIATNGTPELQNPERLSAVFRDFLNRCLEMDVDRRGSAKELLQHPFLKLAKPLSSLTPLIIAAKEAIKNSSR
Protocol: as §1

PI 3-Kinaseδ(h) = biological target: T6, PI 3-Kinaseδ(h) (Homo sapiens, UniProt O00329)
T6 construct: gene PIK3CD
Protocol: as §1

PKCδ(h) = biological target: T7, PKCδ(h) (Homo sapiens, UniProt Q05655)
T7 construct: gene PRKCD
Protocol: as §1

PKCθ(h) = biological target: T8, PKCθ(h) (Homo sapiens, UniProt Q04759)
T8 construct: gene PRKCQ
T8 sequence (Q04759 whole entry): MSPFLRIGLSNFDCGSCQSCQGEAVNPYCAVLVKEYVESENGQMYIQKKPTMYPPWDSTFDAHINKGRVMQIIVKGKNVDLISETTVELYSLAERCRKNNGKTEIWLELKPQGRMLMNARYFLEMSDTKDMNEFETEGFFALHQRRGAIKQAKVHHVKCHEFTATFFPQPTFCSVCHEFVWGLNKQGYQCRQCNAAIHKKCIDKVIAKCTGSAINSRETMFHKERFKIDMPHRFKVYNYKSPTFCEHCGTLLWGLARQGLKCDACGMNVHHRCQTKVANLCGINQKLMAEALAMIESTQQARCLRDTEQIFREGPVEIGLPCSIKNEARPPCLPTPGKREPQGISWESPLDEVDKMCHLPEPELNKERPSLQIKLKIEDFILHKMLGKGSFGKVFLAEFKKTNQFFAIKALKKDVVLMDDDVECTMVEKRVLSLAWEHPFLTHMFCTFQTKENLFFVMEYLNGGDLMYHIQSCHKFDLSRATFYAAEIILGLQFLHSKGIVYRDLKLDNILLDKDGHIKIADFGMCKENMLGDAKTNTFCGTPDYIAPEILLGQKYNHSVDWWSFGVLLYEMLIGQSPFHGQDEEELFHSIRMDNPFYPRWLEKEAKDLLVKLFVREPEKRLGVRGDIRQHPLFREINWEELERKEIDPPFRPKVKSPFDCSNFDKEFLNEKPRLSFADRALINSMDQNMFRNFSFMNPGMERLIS
Protocol: as §1

Rsk1(h) = biological target: T9, Rsk1(h) (Homo sapiens, UniProt Q15418)
T9 construct: gene RPS6KA1
T9 sequence (Q15418 whole entry): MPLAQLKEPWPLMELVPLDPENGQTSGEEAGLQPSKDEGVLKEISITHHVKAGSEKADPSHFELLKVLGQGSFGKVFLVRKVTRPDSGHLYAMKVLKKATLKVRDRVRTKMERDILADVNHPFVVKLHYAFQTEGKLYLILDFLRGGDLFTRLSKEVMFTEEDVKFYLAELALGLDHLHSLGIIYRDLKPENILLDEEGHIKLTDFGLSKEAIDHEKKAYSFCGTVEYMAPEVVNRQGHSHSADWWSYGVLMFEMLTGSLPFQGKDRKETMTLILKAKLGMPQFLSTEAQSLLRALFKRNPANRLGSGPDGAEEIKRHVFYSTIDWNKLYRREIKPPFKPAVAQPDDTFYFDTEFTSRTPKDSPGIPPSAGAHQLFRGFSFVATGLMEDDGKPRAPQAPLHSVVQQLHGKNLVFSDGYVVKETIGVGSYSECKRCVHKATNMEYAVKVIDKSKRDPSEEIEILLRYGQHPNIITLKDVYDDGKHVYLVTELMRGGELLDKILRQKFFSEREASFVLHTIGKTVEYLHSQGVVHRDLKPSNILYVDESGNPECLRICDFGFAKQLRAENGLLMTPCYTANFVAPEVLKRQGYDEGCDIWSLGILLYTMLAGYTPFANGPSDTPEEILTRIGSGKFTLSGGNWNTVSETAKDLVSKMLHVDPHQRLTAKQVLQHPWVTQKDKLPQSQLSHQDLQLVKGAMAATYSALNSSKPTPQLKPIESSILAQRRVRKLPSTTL
Protocol: as §1

SAPK2b(h) = biological target: T10, SAPK2b(h) (Homo sapiens, UniProt Q15759)
T10 construct: gene MAPK11
Protocol: as §1

TrkB(h) = biological target: T11, TrkB(h) (Homo sapiens, UniProt Q16620)
T11 construct: gene NTRK2
Protocol: as §1

T1 sequence (P00519 whole entry): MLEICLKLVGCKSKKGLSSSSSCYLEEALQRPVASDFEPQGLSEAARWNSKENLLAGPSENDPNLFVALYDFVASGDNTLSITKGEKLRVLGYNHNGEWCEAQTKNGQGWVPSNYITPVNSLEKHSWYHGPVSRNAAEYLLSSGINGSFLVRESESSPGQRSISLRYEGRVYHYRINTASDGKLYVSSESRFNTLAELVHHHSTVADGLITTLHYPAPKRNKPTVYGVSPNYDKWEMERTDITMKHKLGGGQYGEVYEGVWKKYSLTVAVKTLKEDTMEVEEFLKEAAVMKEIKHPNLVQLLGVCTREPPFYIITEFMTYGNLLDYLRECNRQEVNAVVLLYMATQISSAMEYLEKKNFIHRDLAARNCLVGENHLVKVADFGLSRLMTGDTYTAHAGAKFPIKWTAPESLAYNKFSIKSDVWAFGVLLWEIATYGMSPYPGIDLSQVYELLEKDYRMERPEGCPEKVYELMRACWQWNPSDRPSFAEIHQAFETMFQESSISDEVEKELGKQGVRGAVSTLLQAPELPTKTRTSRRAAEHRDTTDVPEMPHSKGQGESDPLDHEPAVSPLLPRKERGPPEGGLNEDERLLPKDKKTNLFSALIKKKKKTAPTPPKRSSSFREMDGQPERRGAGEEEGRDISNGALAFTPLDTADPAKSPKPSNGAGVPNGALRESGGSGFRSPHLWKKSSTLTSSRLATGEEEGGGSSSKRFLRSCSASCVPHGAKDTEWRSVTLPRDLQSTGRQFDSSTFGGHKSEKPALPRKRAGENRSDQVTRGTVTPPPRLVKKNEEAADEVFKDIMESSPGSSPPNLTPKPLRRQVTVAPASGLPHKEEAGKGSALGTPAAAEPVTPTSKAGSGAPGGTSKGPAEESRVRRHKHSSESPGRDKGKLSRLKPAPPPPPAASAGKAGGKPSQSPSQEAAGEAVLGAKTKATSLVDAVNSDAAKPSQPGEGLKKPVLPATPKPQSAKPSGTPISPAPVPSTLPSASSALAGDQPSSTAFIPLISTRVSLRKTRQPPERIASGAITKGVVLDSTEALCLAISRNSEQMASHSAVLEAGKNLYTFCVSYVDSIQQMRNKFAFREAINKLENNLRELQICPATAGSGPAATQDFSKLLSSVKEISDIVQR

Q: What does the source list for `Oc1ccc(/C=C/c2cc(O)cc(O)c2)cc1` [Res, resveratrol]?
A: remaining activity at 20 µM (Abl(h)): 105 ± 7%; remaining activity at 20 µM (Aurora-A(h)): 65 ± 1%; remaining activity at 20 µM (CDK2/cyclinA(h)): 80 ± 1%; remaining activity at 20 µM (CDK9/cyclin T1(h)): 70 ± 3%; remaining activity at 20 µM (DAPK1(h)): 71 ± 3%; remaining activity at 20 µM (EphB2(h)): 113 ± 1%; remaining activity at 20 µM (Fgr(h)): 78 ± 5%; remaining activity at 20 µM (GSK3α(h)): 79 ± 4%; remaining activity at 20 µM (JNK1α1(h)): 89 ± 5%; remaining activity at 20 µM (JNK2α2(h)): 110 ± 4%; remaining activity at 20 µM (NEK7(h)): 116 ± 2%; remaining activity at 20 µM (PAK3(h)): 46%; remaining activity at 20 µM (PI 3-Kinaseδ(h)): 106 ± 1%; remaining activity at 20 µM (PKCδ(h)): 92 ± 1%; remaining activity at 20 µM (PKCθ(h)): 99 ± 5%; remaining activity at 20 µM (Rsk1(h)): 70 ± 1%; remaining activity at 20 µM (SAPK2b(h)): 100 ± 1%; remaining activity at 20 µM (TrkB(h)): 98 ± 1%
